The target of this assay is ARF6 (Homo sapiens, UniProt P62330). The assay is described as follows: fluorometric nucleotide exchange assay. The format is biochemical.

As a reminder, the IC50 is the midpoint of a concentration-inhibition curve.

Sequence of ARF6 (P62330 2-175): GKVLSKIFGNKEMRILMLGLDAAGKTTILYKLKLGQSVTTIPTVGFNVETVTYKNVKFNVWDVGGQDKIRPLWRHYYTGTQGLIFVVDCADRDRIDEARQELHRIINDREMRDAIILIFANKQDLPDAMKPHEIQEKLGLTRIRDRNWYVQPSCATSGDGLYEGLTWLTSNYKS

NAV-2729 came in with an IC50 of 1000 nM.

The values are drawn from publication PMC5027844 (Cancer cell, 2016).
